From US20210393586A1, “Compounds for Use in the Treatment of Bacterial Infections” (Universität Konstanz, priority 2018, published 2021)

What was measured:
[1] = system: P. aeruginosa PAO1; experiment: Minimum inhibitory concentration, P. aeruginosa PAO1; type: cell-based; conditions: Pseudomonas aeruginosa; P. aeruginosa PAO1, LB, 24 h at 37° C.
Procedure: (§1) An overnight culture of P. aeruginosa PAO1 or PA14 was diluted 1:1000 in LB media. Afterwards, 99 μL of bacterial suspension and 1 μL of a corresponding stock solution of the compound represented by Formula (2) in DMSO was added to each well of a sterile, round-bottom 96-well plate. The compound represented by Formula (2) was applied in final concentrations of 1000, 500, 100, 50, 10, 5, 1, 0.5, 0.1, 0.05 μM in triplicates. The plate was incubated for 24 h at 37° C. (180 rpm).

[2] = system: P. aeruginosa PA14; experiment: Minimum inhibitory concentration, P. aeruginosa PA14; type: cell-based; conditions: Pseudomonas aeruginosa; P. aeruginosa PA14, LB, 24 h at 37° C.
Procedure: as §1

[3] = target: T1, PqsD (Pseudomonas aeruginosa, UniProt P20582); experiment: Proteomic analysis of active site modification of PqsD after in situ inhibition; type: cell-based; conditions: PqsD inhibited in live E. coli cells, tryptic digest, LC-MS
T1 construct: expressed in transfected cells; host or cells: E. coli BL21 containing pDEST/pqsD, induced with anhydrotetracyclin
T1 sequence (P20582 whole entry): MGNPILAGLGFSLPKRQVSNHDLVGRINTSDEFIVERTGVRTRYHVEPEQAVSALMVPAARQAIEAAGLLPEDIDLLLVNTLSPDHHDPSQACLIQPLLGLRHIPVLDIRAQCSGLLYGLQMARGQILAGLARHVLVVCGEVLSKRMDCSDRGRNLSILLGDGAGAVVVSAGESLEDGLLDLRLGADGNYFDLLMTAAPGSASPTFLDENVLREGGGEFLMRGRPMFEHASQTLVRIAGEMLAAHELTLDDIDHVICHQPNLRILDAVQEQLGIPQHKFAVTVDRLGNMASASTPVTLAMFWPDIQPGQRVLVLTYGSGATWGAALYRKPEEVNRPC
Procedure: In situ labelling was performed, and 2×SDS loading buffer was added directly to the resulting lysates. After SDS-PAGE and Coomassie staining, the protein band corresponding to PqsD was cut out of the gel. Then, tryptic digestion, sample preparation and LC-MS analysis were performed: Coomassie gel bands were washed in MilliQ for 15 sec, bands cut as close as possible and placed in Eppendorf tubes. For reduction and alkylation, a solution of 10 mM DTT in 50 mM NH4CO3 was added and incubated for 60 min at 56° C. The DTT solution was removed and a solution of 50 mM iodoacetamide in 50 mM NH4CO3 was added and incubated for 60 min at room temperature (rt). In a final washing step, the gel pieces were washed with 100 μL MilliQ water and 100 μL 50 mM NH4CO3 solution, then the solution was removed, and the gel dehydrated with acetonitrile/MilliQ water (3:2). The washing step was repeated until the gel pieces turned colorless. Next, the dehydration solution was removed, and acetonitrile was added for 10 sec before drying on air until complete dryness. The gel pieces were incubated for […] on ice in a freshly prepared cold buffer containing trypsin (10.0 ng/μL) and 50 mM NH4CO3. […] The combined washes and elutions were dried via SpeedVac and analyzed by an Orbitrap Fusion with EASY-nLC1200 instrument.

[4] = system: P. aeruginosa PA14; experiment: Bacterial growth curve analysis, P. aeruginosa PA14; type: cell-based, Pseudomonas aeruginosa; conditions: concentrations up to 100 μM, 27 h at 37° C.
Procedure: (§2) In a sterile 15 mL polypropylene centrifuge tubes with screw caps (Roth) 20 μL of a respective DMSO Stock of the compounds represented by Formulas (2) and (5), or 20 μL DMSO as vehicle control was added for 1% final DMSO concentration. Then, 2 mL of LB medium and 6 μL of an overnight culture of P. aeruginosa PA01 or PA14 was added per sample. The samples were incubated for 27 h at 37° C. (190 rpm). At indicated incubation times 50 μL LB medium and 50 μL of culture were transferred in a cuvette, mixed and the adsorption measured at 600 nm.

[5] = system: P. aeruginosa PA01; experiment: Bacterial growth curve analysis, P. aeruginosa PAO1; type: cell-based, Pseudomonas aeruginosa; conditions: concentrations up to 100 μM, 27 h at 37° C.
Procedure: as §2

[6] = system: quinolone and phenazine production of P. aeruginosa PAO1; experiment: Quinolone and phenazine inhibition in P. aeruginosa PAO1 cultures, LC-MS/MS of supernatants; type: cell-based, Pseudomonas aeruginosa
Procedure: (§3) A LC-MS/MS method was established using characteristic mass transitions for quantitative analysis of metabolites in the supernatants of P. aeruginosa (Table 1, FIGS. 13 to 15). A library of phenazines and synthetic AQs and AQNOs served as standards (Szamosvári, D.; Böttcher, T., Angew Chem Int Ed Engl 2017, 56 (25), 7271-7275). There were also analyzed phenazines, including phenazine-1-carboxamide (PHZ-CA), 1-hydroxyphenazine (1-OH-PHZ), and pyocyanin (PYO), which are produced as virulence factors partially under control of the PQS quorum sensing system (FIG. 16a).
(§4) Ultra-high performance liquid chromatography was performed on a Dionex Ultimate 3000 UHPLC (Thermo Fisher Scientific, Waltham, Mass.) using a Nucleodur C18 Gravity-SB 150×2 mm, 3 μm column (Macherey-Nagel). The flow rate was 0.5 mL/min and the columns temperature was held at 40° C. The injection volume was 5 μL using pick up injection mode. Eluent A was 0.1% formic acid in water and eluent B was acetonitrile. The gradient was 20-100% B in 10 min, 100% B for 2 min, 100-20% B in 1 min and 20% B for 2 min. MS/MS analysis was performed by a Finnigan™ TSQ® Quantum (Thermo electron corporation) mass spectrometer in the SRM (Selected Reaction Monitoring) scan mode. As ion source a heated-electrospray ionization (HESI-II probe, Thermo scientific) was used. In the optimized conditions the ion spray voltage was 3500 V, vaporizer temperature 300° C., capillary temperature 380° C., sheath gas pressure 60 psi, ion sweep gas pressure 2 psi, aux gas 10 psi. The tube lens offset was 80 V and skimmer offset 0. Data were acquired in a mass range of m/z 130-350, and MS/MS acquisition of all compounds was performed in positive mode and fixed collision energy of 30 eV. Dwell time was 0.050 sec for all compounds.
The software Quan Browser Thermo Xcalibur 3.1.66.10 was used for quantitative analysis. The standard peak area of the product ions was fitted by linear regression versus the known concentrations to generate a standard curve.
Cultures of P. aeruginosa strains PAO1 and PA14 were incubated with different concentrations of the compound represented by Formula (2) for 24 h and extracted culture supernatants were used for LC-MS/MS analysis.
10 μL of a respective DMSO stock solution of compound represented by Formula (2) or 10 μL DMSO as vehicle control (0.33% final DMSO concentration) was added to 3 mL LB medium in 15 mL polypropylene centrifuge tubes with screw caps (VWR) to obtain final concentrations of 10, 50 and 100 μM. Afterwards 10 μL of a P. aeruginosa PAO1 or PA14 overnight culture was added. The caps of the sample tubes were slightly opened and fixed in a defined position by tape to ensure equal oxygen delivery to all samples. […] (180 rpm). Afterwards, the samples were centrifuged and the supernatants sterile filtered. The inhibition assay was performed in 3-4 biological replicates.
500 μL of sterile supernatant was transferred in 1.5 mL glass vials, 500 μL chloroform was added and vortexed thoroughly. Then, 200 μL of the organic layer was transferred in a clean 1.5 mL glass vial and the solvent evaporated by a gentle stream of nitrogen. The extract was stored at −80° C. until measurement. For analysis, 50 μL acetonitrile/water (1:1) was added to each sample.
MeOH stock solutions of PQS, AQs, AQNOs and phenazines were prepared at 1 mg/mL in glass vials and stored at −80° C. A series of standard solutions was prepared freshly before LC-MS/MS analysis by serial dilutions of the stock solution of each analyte in acetonitrile/water (1:1).

[7] = system: quinolone and phenazine production of P. aeruginosa PA14; experiment: Quinolone and phenazine inhibition in P. aeruginosa PA14 cultures, LC-MS/MS of supernatants; type: cell-based, Pseudomonas aeruginosa
Procedure: as §3, §4
The software Quan Browser Thermo Xcalibur 3.1.66.10 was used for quantitative analysis. The standard peak area of the product ions was fitted by linear regression versus the known concentrations to generate a standard curve. […]

[8] = system: HHQ production of P. aeruginosa PAO1; experiment: 2-ABA feeding of P. aeruginosa PAO1, HHQ quantified by LC-MS/MS; type: cell-based, Pseudomonas aeruginosa; conditions: P. aeruginosa PAO1 grown with 50 μM compound, 2-ABA total 12 mM, 11 h at 37° C.
Procedure: 10 μL of a 5 mM stock of the compound represented by Formula (2) in DMSO or 10 μL of DMSO as vehicle control (1% final DMSO concentration) was added in 1 mL LB medium in 15 mL polypropylene centrifugal tubes. Then, 5 μL P. aeruginosa PAO1 overnight culture was added and grown at 37° C. (190 rpm). Due to the instability of 2-ABA, it was added in six portions. After several time points (6 h, 6.5 h, 7 h, 7.5 h, 8 h and 10 h) the cultures treated with the compound represented by Formula (2) were supplemented with 20 μL 100 mM 2-ABA stock in basic solution (1% NH4OH) or 20 μL basic solution (1% NH4OH) as vehicle control. To investigate the effect of basic solution, the DMSO containing control samples were supplemented with same amounts of basic solution compared to treated samples. The total amount of 2-ABA added to each sample was 12 mM and the pH of the cultures after addition of the total volume of basic solution was under pH 8. After 11 h cultures were centrifuged, supernatants sterile filtered and HHQ extracted and quantified by LC-MS/MS according to the previously described protocol.

Structure (SMILES) | MIC [1] | MIC [2] | site of covalent binding in PqsD (six cysteines in total) [3] | growth (OD 600 nm growth curve) [4] | growth (OD 600 nm growth curve) [5] | production of all major quorum sensing signals, PQS and the chain length congeners of HHQ ([6]; P. aeruginosa PAO1, between 50 μM and 100 μM, 24 h) | intensity of quinolones and phenazines (LC-MS/MS chromatograms) ([6]; P. aeruginosa PAO1, increasing concentrations 10, 50, 100 μM, 24 h) | IC50 ([6]; Pseudomonas aeruginosa, PAO1, 24 h, read-out: average IC50 for production of all major quorum sensing signals, PQS and the chain length congeners of HHQ) | production of quinolone N-oxide congeners incl. HQNO, NQNO and trans-Δ1-NQNO ([6]; dose response manner, 10, 50, 100 μM, strain not given, 24 h) | phenazine production (1-OH-PHZ, PHZ-CA, pyocyanin) ([6]; strongest for 1-OH-PHZ and weakest for pyocyanin, strain not given, 24 h) | production of all major quorum sensing signals, PQS and the chain length congeners of HHQ ([7]; compared with PAO1 (complete inhibition between 50 μM and 100 μM), 24 h) | intensity of quinolones and phenazines (LC-MS/MS chromatograms) ([7]; increasing concentrations 10, 50, 100 μM, 24 h) | HHQ production after external addition of 2-ABA to inhibited culture [8] | inhibition of quinolone production ([6]; P. aeruginosa PAO1, 100 μM, 27 h at 37° C. (FIG. 20a)) | inhibition of quinolone production ([7]; 100 μM, 27 h at 37° C. (FIG. 20b))
Nc1ccccc1C(=O)CCl [Formula (2), 2′-amino-1-chloro-acetophenone] | > 1000 µM | > 1000 µM | only bound to the active site cysteine (Cys112) | largely unaffected | largely unaffected | completely inhibited | considerably decreased | < 10 µM | inhibited | down-regulation of phenazines | slightly lesser degree | considerably decreased | partially restored | – | –
O=C(CCl)c1cccc2cc[nH]c12 [Formula (5)] | – | – | – | largely unaffected | largely unaffected | – | – | – | – | – | – | – | – | observed | observed
